Drawing on ChEMBL document CHEMBL1122322, “Synthesis and antileishmanial activity of 6-methoxy-4-methyl-N-[6-(substituted-1-piperazinyl)hexyl]-8-quinolinamines and related compounds” (1983), this text covers Suppression and G index for 40 compounds.

The source made the active and inactive calls. The calls are words filed in the database; no cut-off is given here.

Assay [1] relates to Leishmania donovani. The experiment in a line: Antileishmanial activity against Leishmania donovani infections in hamsters (at 13 mg/kg). The assay is classed as functional.
In assay [2] the test system is Leishmania donovani. The experiment in a line: (§1) Antileishmanial activity against Leishmania donovani infections in hamsters (208 mg/kg). The class given is functional, organism-based.
The test system of assay [3] is Leishmania donovani. The experiment in a line: Antileishmanial activity against Leishmania donovani infections in hamsters (3.25 mg/kg). The assay is classed as functional.
Assay [4] deals with Leishmania donovani. Kind of assay: Antileishmanial activity against Leishmania donovani infections in hamsters (at 52 mg/kg). The class given is functional.
For assay [5], the system named is Leishmania donovani. Kind of assay: Glucantime (meglumine antimoniate) index (G index) against Leishmania donovani infections in hamsters. The class given is functional.
For assay [6], the system named is Leishmania donovani. The experiment in a line: Antileishmanial activity against Leishmania donovani infections in hamsters (208 mg/kg): Inactive. The class given is functional, organism-based.
Assay [7] has as its system Leishmania donovani. The experiment in a line: Antileishmanial activity against Leishmania donovani infections in hamsters (0.81 mg/kg). The class given is functional.
In assay [8] the test system is Leishmania donovani. The description is as §1. The assay is classed as functional.
Assay [9] deals with Leishmania donovani. Kind of assay: Antileishmanial activity against Leishmania donovani infections in hamsters (0.2 mg/kg). The class given is functional.

Take `CCN(CC)CC(O)CN1CCN(CCCCCCNc2cc(OC)cc3c(C)ccnc23)CC1.Cl` (stereo not drawn): the Suppression in assay [1] is 99.7%; in assay [2], “Toxic”; in assay [3], 32.6%; in assay [4] it was 99.9%. The G index in assay [5] is 6.
As to `CCCCCCCCCCCCN1CCN(CCCCCCNc2cc(OC)cc3c(C)ccnc23)CC1`, the Suppression result in assay [6] is “inactive”.
As for `COc1cc(NCCCCCCN2CCN(CCCCCCNc3cc(OC)cc4c(C)ccnc34)CC2)c2nccc(C)c2c1`, the Suppression entry in [6] is “inactive”.
`COc1cc(NCCCCCCN2CCSCC2)c2nccc(C)c2c1.Cl`: the Suppression was 27.61% in [7]; 99.8% in assay [1]; “Toxic” in [2]; 59.9% in [3]; 100% in assay [4]. Further, the G index in [5] was 6.4.
In the case of `COc1cc(NCCCCCCN2CCN(CCCO)CC2)c2nccc(C)c2c1`, the Suppression in assay [1] is 96.3%; in assay [2], “Toxic”; in [4] it was 97.8%. The G index in assay [5] amounted to 38.
Consider `CCC(CC)C(=O)N1CCN(CCCCCCNc2cc(OC)cc3c(C)ccnc23)CC1.Cl`, for which the Suppression in assay [1] is reported as 56.6%; in assay [8] it was 98.6%; in [4], 99.3%. Moreover, the G index in assay [5] was 2.6.
Regarding `COc1cc(NCCCCCCN2CCN(CCO)CC2)c2nccc(C)c2c1Oc1cccc(C(F)(F)F)c1.Cl`, the Suppression in [1] was 98%; in assay [2], “Toxic”; in assay [4], 99.1%.
On to `COc1cc(NCCCCCCN2CCS(=O)(=O)CC2)c2nccc(C)c2c1`, for which the Suppression in assay [1] is 35%; in assay [8], 100%; in [4] it was 67.6%. In [5], this compound displayed a G index of 0.5.
Regarding `COc1cc(NCCCCCCN2C[C@H](C)S[C@@H](C)C2)c2nccc(C)c2c1`, the Suppression in assay [1] worked out at 21.4%; in [8], 98.2%; in [4], 65%. Besides, in assay [5], the G index is 0.4.
For `CCCN(CCC)C(=O)N1CCN(CCCCCCNc2cc(OC)cc3c(C)ccnc23)CC1.Cl`, in that order: 89.7%, 100%, 99.4% and 6.
Regarding `COc1cc(NCCCCCCN2CCCN(C)CC2)c2nccc(C)c2c1`, the Suppression in [7] is 61%; in assay [1] it was 99.8%; in assay [8] it was 98.6%; in assay [3], 91.2%; in [4] it was 99.4%. This compound also registered a G index in [5] of 12.
On to `COc1cc(NCCCCCCN2CCN(C(=O)N3CCCC3)CC2)c2nccc(C)c2c1.Cl`, for which the Suppression in assay [7] is on record as 4.6%; in assay [1], 100%; in [8] it was 100%; in assay [3], 98.8%; in assay [4], 99.8%. Moreover, the G index in assay [5] amounted to 2.3.
As to `CCOC(=O)N1CCN(CCCCCCNc2cc(OC)cc3c(C)ccnc23)CC1`, the Suppression in assay [7] stood at 23.9%; in assay [1], 99.9%; in assay [8], 99.5%; in [3] it was 99.1%; in [4] it was 99.9%. The compound further registered a G index in [5] of 33.
With `CC/N=C(\S)N1CCN(CCCCCCNc2cc(OC)cc3c(C)ccnc23)CC1.Cl`, the G index in assay [5] worked out at 2.
As to `COc1cc(NCCCCCCN2CCN(CCC(C)C)CC2C)c2nccc(C)c2c1.Cl` (stereo not drawn), the Suppression in assay [9] is 57.3%; in assay [7], 96.6%; in [1], 98.9%; in [2], “Toxic”; in assay [3], 100%; in [4], 99.8%. Besides, the G index in [5] worked out at 72.
On to `COc1cc(NCCCCCCN2CCN(c3ccc(Cl)c(Cl)c3)CC2)c2nccc(C)c2c1`, for which, in assay [8], the Suppression is reported as 77.8%. Moreover, the G index in [5] is on record as less than 1.
As to `CCS(=O)(=O)CCN1CCN(CCCCCCNc2cc(OC)cc3c(C)ccnc23)CC1`, the Suppression in assay [7] is 21.1%; in assay [1], 99.7%; in assay [8], 99.9%; in assay [3], 99.6%; in assay [4] it was 99.5%. In assay [5], this compound registered a G index of 19.
`COc1cc(NCCCCCCN2CCN(CC(O)CO)CC2)c2nccc(C)c2c1.Cl` (stereo not drawn): the Suppression in assay [9] is 25.8%; in [7], 98.5%; in assay [1], 100%; in [2], “Toxic”; in [3], 99.98%; in assay [4], 99.9%. Also, the G index in [5] is given as 57.
Consider `CCN(CC)CCCCCCNc1cc(OC)cc2c(C)cc(C)nc12.Cl`, for which the G index in assay [5] came out at 32.
Regarding `COc1cc(NCCCCCCN2CCN(C3CCCCC3)CC2)c2nccc(C)c2c1`, the Suppression entry in assay [6] was “inactive”.
On the same count and under the same terms, then `COc1cc(NCCCCCCN2CCNc3ccccc32)c2nccc(C)c2c1`, with “inactive”.
For `COc1cc(NCCCCCCN2CC[S+]([O-])CC2)c2nccc(C)c2c1.Cl`, the Suppression in assay [1] was 84.8%; in assay [2], “Toxic”; in assay [4], 92.8%. The compound also came in with a G index in assay [5] of 3.
For the compound `COc1cc(NCCCCCCN2CCN(C)CC2)c2nccc(C)c2c1.Cl`, the Suppression is listed as 64.7% in [7]; 99.7% in assay [1]; 99.7% in assay [8]; 99.3% in [3]; 100% in assay [4]. The compound further displayed a G index in assay [5] of 26.
Turning to `COc1cc(NCCCCCCN2C[C@@H](C)S[C@@H](C)C2)c2nccc(C)c2c1`, the Suppression was 81.1% in assay [1], “Toxic” in assay [2] and 93.7% in assay [4]. The compound further had a G index in [5] of 1.5.
Consider `COc1cc(NCCCCCCN2CCN(C(=O)OCc3ccccc3)CC2)c2nccc(C)c2c1.Cl`, for which the Suppression was 54.6% in assay [1], “Toxic” in assay [2] and 98% in [4]. In assay [5], the G index worked out at 2.3.
Turning to `COc1cc(NCCCCCCN2CCN(CCCN(C)C)CC2)c2nccc(C)c2c1.Cl`, the Suppression in [1] was 65.8%; in assay [2] it was “Toxic”; in [4], 99.7%. The G index in assay [5] is listed as 2.
As to `COc1cc(NCCCCCCN2CCN(CCOC(c3ccccc3)c3ccccc3)CC2)c2nccc(C)c2c1.Cl`, the values for the Suppression in [1], in assay [8] and in assay [4] were 83.5%, 100% and 99.5%, respectively. The compound further had a G index in assay [5] of 5.
With `COc1cc(NCCCCCCN2CCN(C(c3ccccc3)c3ccc(Cl)cc3)CC2)c2nccc(C)c2c1.Cl.Cl` (stereo not drawn), the Suppression was 70% in assay [7]; 99.4% in [1]; “Toxic” in assay [2]; 100% in [3]; 96.8% in assay [4]. Also, the G index in assay [5] was 23.
As for `COc1cc(NCCCCCCN2CCN(c3ccccn3)CC2)c2nccc(C)c2c1`, the Suppression in assay [7] is 18.9%; in assay [1], 95.9%; in assay [8], 97.5%; in assay [3], 24.4%; in [4], 97.8%. For the same compound, the G index in assay [5] is 5.
With `COc1cc(NCCCCCCN2CC(C)OC(C)C2)c2nccc(C)c2c1.Cl` (stereo not drawn), the Suppression in [7] was 61%; in assay [1] it was 99.1%; in assay [2], “Toxic”; in assay [3], 98.7%; in assay [4], 99.1%. Also, the G index in assay [5] was 24.
Consider `CCC(C)NCCCCCCNc1cc(OC)cc2c(C)cc(C)nc12.Cl` (stereo not drawn), for which the G index in assay [5] is on record as 28.
As for `COc1cc(NCCCCCCNC(C)C)c2nccc(C)c2c1Oc1cccc(C(F)(F)F)c1`, the figures for the Suppression in assay [1] and in [2] were 98.6% and “Toxic”, respectively.
For `COc1cc(NCCCCCCN2CCN(S(=O)(=O)c3ccccc3)c3ccccc32)c2nccc(C)c2c1`, the Suppression entry in assay [6] was “inactive”.
Regarding `CCN(CC)CCCCCCNc1cc(OC)c(Oc2cccc(C(F)(F)F)c2)c2c(C)ccnc12`, the Suppression in assay [1] was 99.6%; in [2], “Toxic”; in [4], 100%.
Consider `CCN(CC)C(=O)N1CCN(CCCCCCNc2cc(OC)cc3c(C)ccnc23)CC1.Cl`, for which the Suppression was 98.8% in assay [1], “Toxic” in [2], 72.2% in assay [3] and 98.6% in [4]. Moreover, the G index in assay [5] amounted to 8.
On to `COc1cc(NCCCCCCN2CCN(C(=O)N(c3ccccc3)c3ccccc3)CC2)c2nccc(C)c2c1`, for which the Suppression entry in [6] was “inactive”.
In the case of `CCNC(=O)N1CCN(CCCCCCNc2cc(OC)cc3c(C)ccnc23)CC1.Cl`, the Suppression in [7] was 35.9%; in assay [1], 99.2%; in [2] it was “Toxic”; in [3] it was 84.1%; in assay [4] it was 100%. In addition, the G index in assay [5] stood at 9.
Turning to `CCS(=O)(=O)N1CCN(CCCCCCNc2cc(OC)cc3c(C)ccnc23)CC1`, the Suppression is 94.8% in [1], 99.9% in assay [8] and 99.8% in assay [4]. This compound gave a G index in assay [5] of 4.
In turn, `COc1cc(NCCCCCCNC(C)C)c2nc(C)cc(C)c2c1.Cl` had a G index in [5] of 42.
Take `COc1cc(NCCCCCCN2CCN(CCO)CC2)c2nccc(C)c2c1.Cl`: the Suppression in assay [7] is given as 85.8%; in assay [1], 100%; in assay [3], 97%; in assay [4] it was 100%. In [5], this compound yielded a G index of 104.
